Measured values as given in the supplement of paper PMC11061612.

Columns and labels:
Experiment in all cases: Bliss excess, mean over the matrix (fraction); higher = more synergy
NH-12 (Neuroblastoma) = tested on: NH-12 (Neuroblastoma)
Method in brief: (§1)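 Bliss excess equals the observed combination effect minus the expected value EA + EB − EA·EB, where EA and EB are the effects of each agent alone. Combination Emax is the second-highest inhibition within the matrix. Inhibition was scaled from CellTiter-Glo 2.0 luminescence, with 0 set by vehicle wells and 1 by blank wells, after 72 hours of two-drug dosing of cells plated in 1536-well plates.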

[1] = tested on: OCUM-1 (Gastric Carcinoma)
Method in brief: as §1

[2] = tested on: VMRC-LCD (Lung Adenocarcinoma)
Method in brief: as §1

[3] = tested on: TGBC11TKB (Gastric Carcinoma)
Method in brief: as §1

[4] = tested on: SNU-C1 (Colorectal Carcinoma)
Method in brief: as §1

[5] = tested on: JHH-7 (Hepatocellular Carcinoma)
Method in brief: as §1

[6] = tested on: HuP-T3 (Pancreatic Carcinoma)
Method in brief: as §1

GI-1 (Glioblastoma) = tested on: GI-1 (Glioblastoma)
Method in brief: as §1

EW-18 (Ewing's Sarcoma) = tested on: EW-18 (Ewing's Sarcoma)
Method in brief: as §1

GOTO (Neuroblastoma) = tested on: GOTO (Neuroblastoma)
Method in brief: as §1

[7] = tested on: LC4-1 (B-Lymphoblastic Leukemia)
Method in brief: as §1

[8] = tested on: NCI-H1573 (Lung Adenocarcinoma)
Method in brief: as §1

[9] = tested on: NCI-N87 (Gastric Carcinoma)
Method in brief: as §1

[10] = tested on: MFE-319 (Endometrial Carcinoma)
Method in brief: as §1

[11] = tested on: LOU-NH91 (Squamous Cell Lung Carcinoma)
Method in brief: as §1

[12] = tested on: EMC-BAC-2 (Non-Small Cell Lung Carcinoma)
Method in brief: as §1

## CCc1c2c(nc3ccc(O)cc13)-c1cc3c(c(=O)n1C2)COC(=O)[C@]3(O)CC [SN-38] + O=C(c1cc(Cc2n[nH]c(=O)c3ccccc23)ccc1F)N1CCN(C(=O)C2CC2)CC1 [Olaparib] (first compound max 0.3 µM, 7x7, partner max 10 µM)
NH-12 (Neuroblastoma)
  Bliss excess: -0.0089
[1]
  Bliss excess: 0.014
[2]
  Bliss excess: -0.0163
[3]
  Bliss excess: 0.0814
[4]
  Bliss excess: -0.0419
[5]
  Bliss excess: 0.0299
[6]
  Bliss excess: -0.0406
GI-1 (Glioblastoma)
  Bliss excess: 0.0652
EW-18 (Ewing's Sarcoma)
  Bliss excess: 0.034
GOTO (Neuroblastoma)
  Bliss excess: -0.0014
[7]
  Bliss excess: 0.0234
[8]
  Bliss excess: -0.0085
[9]
  Bliss excess: 0.0599
[10]
  Bliss excess: 0.0328
[11]
  Bliss excess: 0.0095
[12]
  Bliss excess: 0.0721
